# Patent publication US9738600B2, “ROR gamma (RORγ) modulators” (LEAD PHARMA CEL MODELS IP B.V., priority 2013, dated 2017)
# Molecular target: T1, RORγ (Homo sapiens, UniProt P51449)
# T1 sequence (P51449 269-508 limits assumed): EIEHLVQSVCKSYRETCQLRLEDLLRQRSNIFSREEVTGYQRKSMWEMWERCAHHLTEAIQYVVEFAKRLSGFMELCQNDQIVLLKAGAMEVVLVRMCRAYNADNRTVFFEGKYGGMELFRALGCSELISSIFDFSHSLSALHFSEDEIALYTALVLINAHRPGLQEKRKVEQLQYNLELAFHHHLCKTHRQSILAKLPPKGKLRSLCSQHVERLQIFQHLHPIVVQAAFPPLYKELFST
# Test: RORγ GAL4 reporter gene assay
# Conditions: mean pIC50, inhibition of RORγ (GAL4-RORγ-LBD) in 293FT cells, luciferase readout, overnight incubation
# From the text: The RORγ ligand-binding domain (LBD) was fused to the yeast GAL4 DNA binding domain (DBD) and placed under the control of the human cytomegalovirus (CMV) immediate early promoter, using expression vector pFN26A (Promega) and standard recombinant DNA cloning methods.
# To monitor the inhibitory effect of compounds on RORγ, a transcriptional reporter construct was used. The pGL4.35 vector (Promega) contains nine copies of the GAL4 Upstream Activator Sequence (UAS). This sequence drives the transcription of the luciferase reporter gene luc2P in response to binding of a fusion protein containing the GAL4 DNA binding domain, as for example expressed by the GAL4-RORγ-LBD and GAL4-VP16 expression vectors described above.
# The day after transfection, cells were plated into 96 well plates, test compound was added and the plates were incubated overnight. Subsequently, the firefly luciferase activity was quantified using luciferase detection reagent and luminescence readout.
# 1500 μL of this reagent mixture was added to 5 μg of GAL4 fusion protein expression vector and 5 μg of the transcriptional reporter construct, and incubated at RT for 20 minutes.
# Subsequently, the cells were washed with Phosphate Buffered Saline (PBS) (Lonza), after which the PBS was removed. To dissociate the cells, 1 ml of TrypLE Express (Invitrogen) was added to the flask, followed by incubation at RT until the cells visually started to detach. Cells were collected in 5 mL of assay medium (DMEM culture medium (Lonza), 10% dialyzed FBS (Invitrogen) and Pen/Strep (Lonza)) to achieve a single cell suspension. 10×10^6 cells were spun down and re-suspended in 10 mL of assay medium. Subsequently, the cell suspension was added to the transfection mix tube, and then transferred as a whole to a T75 flask (Greiner), followed by overnight (16-24 hours) incubation at 37° C. and 5% CO2.
# For compound screening, the cells were harvested (as described above) and counted. […] 80 μL of cell suspension (60,000 cells) was plated per well into a white, flat bottom, tissue culture treated, 96 well screening plates (Greiner).
# Test compounds were diluted, starting from a 10 mM dimethylsulfoxide (DMSO) stock solution, to serial dilutions in DMSO at 500× the final test concentration. Subsequently, these solutions were diluted to 5× the final test concentration in two 10-fold-dilution steps in assay medium. The final DMSO concentration of the 5× test compound solution was 1%. 20 μL of the 5× test compound solution was added to each test well of the 96 well plate previously plated with 80 μl cell suspension, resulting in the final test concentration with 0.2% DMSO.
# The plates were incubated overnight (16-24 hours) at 37° C. and 5% CO2.
# For the luciferase readout, the luciferase reagent (Britelite Plus, Perkin Elmer) was brought to RT. […] The luciferase luminescence signal was measured using a Wallac Victor Microplate Reader (Perkin Elmer).
# The half maximum inhibitory concentration (IC50) values for the test compounds were calculated from the luciferase signal using GraphPad Prism software (GraphPad Software).
structure (smiles),measurement,value
"O=C(Cc1ccc(S(=O)(=O)CC2CC2)cc1)Nc1ccc(C(O)(CC2CCCC2)C(F)(F)F)cc1 (stereo not drawn) [Example 68, N-(4-(3-cyclopentyl-1,1,1-trifluoro-2-hydroxypropan-2-yl)phenyl)-2-(4-((cyclopropylmethyl)sulfonyl)phenyl)acetamide]",IC50,≤ 0.1 µM
"CCC(O)(c1ccc(NC(=O)Cc2ccc(S(=O)(=O)NC3CC3)cc2)cc1)C(F)(F)F (stereo not drawn) [Example 79, 2-(4-(N-cyclopropylsulfamoyl)phenyl)-N-(4-(1,1,1-trifluoro-2-hydroxybutan-2-yl)phenyl)acetamide]",IC50,≤ 1 µM
"O=C(Cc1ccc(S(=O)(=O)NC2CC2)cc1)Nc1ccc(C(O)(C(F)(F)F)C(F)(F)F)c(Cl)c1 [Example 89, N-(3-chloro-4-(1,1,1,3,3,3-hexafluoro-2-hydroxypropan-2-yl)phenyl)-2-(4-(N-cyclopropylsulfamoyl)phenyl)acetamide]",IC50,≤ 1 µM
"CCS(=O)(=O)c1ccc(CC(=O)Nc2ccc(C(O)(C3CCCC3)C(F)(F)F)cc2)cc1 (stereo not drawn) [Example 85, N-(4-(1-cyclopentyl-2,2,2-trifluoro-1-hydroxyethyl)phenyl)-2-(4-(ethylsulfonyl)phenyl)acetamide]",IC50,≤ 1 µM
"O=C(Cc1cccc(S(=O)(=O)NC2CC2)c1)Nc1ccc(C(O)(C(F)(F)F)C(F)(F)F)c(F)c1 [Example 38, 2-(3-(N-cyclopropylsulfamoyl)phenyl)-N-(3-fluoro-4-(1,1,1,3,3,3-hexafluoro-2-hydroxypropan-2-yl)phenyl)acetamide]",IC50,≤ 1 µM
"O=C(Nc1ccc(C(O)(C(F)(F)F)C(F)(F)F)cc1)C(O)c1ccc(S(=O)(=O)CC2CC2)cc1 (stereo not drawn) [Example 114, 2-(4-((cyclopropylmethyl)sulfonyl)phenyl)-N-(4-(1,1,1,3,3,3-hexafluoro-2-hydroxypropan-2-yl)phenyl)-2-hydroxyacetamide]",IC50,≤ 0.1 µM
"CC(C(=O)Nc1ccc(C(O)(C(F)(F)F)C(F)(F)F)cc1)c1ccc(S(=O)(=O)CC2CC2)cc1 (stereo not drawn) [Example 109, 2-(4-((cyclopropylmethyl)sulfonyl)phenyl)-N-(4-(1,1,1,3,3,3-hexafluoro-2-hydroxypropan-2-yl)phenyl)propanamide]",IC50,≤ 0.1 µM
"Cc1cc(NC(=O)Cc2ccc(S(=O)(=O)NC3CC3)cc2)ccc1C(O)(C(F)(F)F)C(F)(F)F [Example 32, 2-(4-(N-cyclopropylsulfamoyl)phenyl)-N-(4-(1,1,1,3,3,3-hexafluoro-2-hydroxypropan-2-yl)-3-methylphenyl)acetamide]",IC50,≤ 0.1 µM
"CCOC(c1ccc(NC(=O)Cc2ccc(S(=O)(=O)CC3CC3)cc2)cc1)(C(F)(F)F)C(F)(F)F [Example 53, 2-(4-((cyclopropylmethyl)sulfonyl)phenyl)-N-(4-(2-ethoxy-1,1,1,3,3,3-hexafluoropropan-2-yl)phenyl)acetamide]",IC50,≤ 0.1 µM
"CCS(=O)(=O)c1ccc(CC(=O)Nc2ccc(C(O)(C(F)(F)F)C(F)(F)F)cn2)cc1 [Example 21, 2-(4-(ethylsulfonyl)phenyl)-N-(5-(1,1,1,3,3,3-hexafluoro-2-hydroxypropan-2-yl)pyridin-2-yl)acetamide]",IC50,≤ 1 µM
"O=C(Cc1cccc(S(=O)(=O)NC2CC2)c1)Nc1ccc(C(O)(C(F)(F)F)C(F)(F)F)cc1 [Example 12, 2-(3-(N-cyclopropylsulfamoyl)phenyl)-N-(4-(1,1,1,3,3,3-hexafluoro-2-hydroxypropan-2-yl)phenyl)acetamide]",IC50,≤ 1 µM
"CNS(=O)(=O)c1ccc(CC(=O)Nc2ccc(C(O)(C(F)(F)F)C(F)(F)F)cc2)cc1 [Example 6, N-(4-(1,1,1,3,3,3-hexafluoro-2-hydroxypropan-2-yl)phenyl)-2-(4-(N-methylsulfamoyl)phenyl)acetamide]",IC50,≤ 1 µM
"CCS(=O)(=O)c1ccc(CC(=O)Nc2ccc(C(O)(CC3CCCCC3)C(F)(F)F)cc2)cc1 (stereo not drawn) [Example 74, N-(4-(3-cyclohexyl-1,1,1-trifluoro-2-hydroxypropan-2-yl)phenyl)-2-(4-(ethylsulfonyl)phenyl)acetamide]",IC50,≤ 1 µM
"Cc1cc(S(=O)(=O)CC2CC2)ccc1CC(=O)Nc1ccc(C(O)(C(F)(F)F)C(F)(F)F)cc1 [Example 93, 2-(4-((cyclopropylmethyl)sulfonyl)-2-methylphenyl)-N-(4-(1,1,1,3,3,3-hexafluoro-2-hydroxypropan-2-yl)phenyl)acetamide]",IC50,≤ 0.1 µM
"CCNS(=O)(=O)c1ccc(CC(=O)Nc2ccc(C(O)(C(F)(F)F)C(F)(F)F)cc2)cc1 [Example 10, 2-(4-(N-ethylsulfamoyl)phenyl)-N-(4-(1,1,1,3,3,3-hexafluoro-2-hydroxypropan-2-yl)phenyl)acetamide]",IC50,≤ 1 µM
"CCS(=O)(=O)c1ccc(CC(=O)Nc2ccc(C(O)(C(F)(F)F)C(F)(F)F)cc2C)cc1 [Example 31, 2-(4-(ethylsulfonyl)phenyl)-N-(4-(1,1,1,3,3,3-hexafluoro-2-hydroxypropan-2-yl)-2-methylphenyl)acetamide]",IC50,≤ 1 µM
"O=C(Cc1ccc(S(=O)(=O)CC2CC2)cc1)Nc1ccc(C(O)(Cc2ccccc2)C(F)(F)F)cc1 (stereo not drawn) [Example 87, 2-(4-cyclopropylmethanesulfonylphenyl)-N-[4-(1,1,1-trifluoro-2-hydroxy-3-phenylpropan-2-yl)phenyl]acetamide]",IC50,≤ 0.1 µM
"CCC(O)(c1ccc(NC(=O)Cc2ccc(S(=O)(=O)CC3CC3)cc2)cc1)C(F)(F)F (stereo not drawn) [Example 83, 2-(4-((cyclopropylmethyl)sulfonyl)phenyl)-N-(4-(1,1,1-trifluoro-2-hydroxybutan-2-yl)phenyl)acetamide]",IC50,≤ 0.01 µM
"CCCOC(c1ccc(NC(=O)Cc2ccc(S(=O)(=O)CC3CC3)cc2)cc1)(C(F)(F)F)C(F)(F)F [Example 60, 2-(4-((cyclopropylmethyl)sulfonyl)phenyl)-N-(4-(1,1,1,3,3,3-hexafluoro-2-propoxypropan-2-yl)phenyl)acetamide]",IC50,≤ 0.01 µM
"O=C(Cc1ccc(S(=O)(=O)CC2CC2)cc1)Nc1ccc(C(O)(C(F)(F)F)C(F)(F)F)nc1 [Example 110, 2-(4-((cyclopropylmethyl)sulfonyl)phenyl)-N-(6-(1,1,1,3,3,3-hexafluoro-2-hydroxypropan-2-yl)pyridin-3-yl)acetamide]",IC50,≤ 1 µM
"CCS(=O)(=O)c1ccc(CC(=O)Nc2ccc(C(OCC(F)(F)F)(C(F)(F)F)C(F)(F)F)cc2)cc1 [Example 112, 2-(4-(ethylsulfonyl)phenyl)-N-(4-(1,1,1,3,3,3-hexafluoro-2-(2,2,2-trifluoroethoxy)propan-2-yl)phenyl)acetamide]",IC50,≤ 1 µM
"CC(O)(c1ccc(NC(=O)Cc2ccc(S(=O)(=O)NC3CC3)cc2)cc1)C(F)(F)F (stereo not drawn) [Example 78, 2-(4-(N-cyclopropylsulfamoyl)phenyl)-N-(4-(1,1,1-trifluoro-2-hydroxypropan-2-yl)phenyl)acetamide]",IC50,≤ 1 µM
"CCS(=O)(=O)c1ccc(CC(=O)Nc2ccc(C(O)(C(F)(F)F)C(F)(F)F)c(Cl)c2)cc1 [Example 84, N-(3-chloro-4-(1,1,1,3,3,3-hexafluoro-2-hydroxypropan-2-yl)phenyl)-2-(4-(ethylsulfonyl)phenyl)acetamide]",IC50,≤ 1 µM
"O=C(Nc1ccc(C(O)(C(F)(F)F)C(F)(F)F)cc1)C(=O)c1ccc(S(=O)(=O)CC2CC2)cc1 [Example 102, 2-(4-((cyclopropylmethyl)sulfonyl)phenyl)-N-(4-(1,1,1,3,3,3-hexafluoro-2-hydroxypropan-2-yl)phenyl)-2-oxoacetamide]",IC50,≤ 1 µM
